Data: ChEMBL document CHEMBL1201862, “PubChem BioAssay data set” (2004)
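96-well plates; 48 h exposure; 5 concentrations. Endpoints by linear interpolation between flanking doses. Not reached: highest tested concentration assigned. GI50: concentration for 50% inhibition of growth.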 Calls of active or inactive are those of the source. Cut-off read from the data, not from the text of the source: active = GI50 up to about 1.1 µM and inactive = higher. Numbered stars: 1 amine (or outer) side, 2 acyl side, 3 side chain; on linkers, the order of the positions; unused ones are H or OH. Bridge positions count the residues as written; N and C are the ends. Square brackets hold non-standard residues; d marks the D form. Peptide text beside a SMILES is read from it. I, II: the chains in the order shown. Actinocin(9to1) = Cc1c2oc3c(C)ccc(C(=O)[*:1])c3nc-2c(C(=O)[*:2])c(N)c1=O; NMeH = CN[CH](Cc1c[nH]cn1)C(=O)O; Sar = CNCC(=O)O

What was measured:
Assay in all cases: growth of human tumour cells (NCI), 48 h
A549 = system: A549
HL-60 = system: HL-60
SR = system: SR
M14 = system: M14
UACC-62 = system: UACC-62
PC-3 = system: PC-3
HT-29 = system: HT-29
786-0 = system: 786-0
HOP-92 = system: HOP-92
NCI-H460 = system: NCI-H460
BT-549 = system: BT-549
MOLT-4 = system: MOLT-4
IGROV-1 = system: IGROV-1
U-251 = system: U-251
HCT-116 = system: HCT-116
SF-268 = system: SF-268
HCT-15 = system: HCT-15
OVCAR-3 = system: OVCAR-3
CAKI-1 = system: CAKI-1
SK-MEL-5 = system: SK-MEL-5

Structure (SMILES)	GI50 (A549)	GI50 (HL-60)	GI50 (SR)	GI50 (M14)	GI50 (UACC-62)	GI50 (PC-3)	GI50 (HT-29)	GI50 (786-0)	GI50 (HOP-92)	GI50 (NCI-H460)	GI50 (BT-549)	GI50 (MOLT-4)	GI50 (IGROV-1)	GI50 (U-251)	GI50 (HCT-116)	GI50 (SF-268)	GI50 (HCT-15) [µM]	GI50 (OVCAR-3)	GI50 (CAKI-1)	GI50 (SK-MEL-5)
c1coc(C2=Nc3cccc4cccc(c34)N2)c1	60.3 µM (inactive)	19.5 µM (inactive)	> 100 µM (inactive)	25.4 µM (inactive)	35.5 µM (inactive)	24.2 µM (inactive)	23.2 µM (inactive)	53.3 µM (inactive)	25.5 µM (inactive)	34.8 µM (inactive)	44.5 µM (inactive)	> 100 µM (inactive)	> 100 µM (inactive)	69 µM (inactive)	23.1 µM (inactive)	68.2 µM (inactive)	26.5	24.2 µM (inactive)	35.4 µM (inactive)	34.9 µM (inactive)
Cc1cc2c3c(c1)S(=O)(=O)c1cc(Cl)ccc1N3CCC2	> 100 µM (inactive)	> 100 µM (inactive)	> 100 µM (inactive)	> 100 µM (inactive)	> 100 µM (inactive)	88.1 µM (inactive)	> 100 µM (inactive)	82.2 µM (inactive)	> 100 µM (inactive)	> 100 µM (inactive)	> 100 µM (inactive)	57.7 µM (inactive)	84.3 µM (inactive)		> 100 µM (inactive)	> 100 µM (inactive)	> 100	> 100 µM (inactive)	> 100 µM (inactive)	> 100 µM (inactive)
Cc1ccc(C(CCO)CCO)nc1	> 100 µM (inactive)	> 100 µM (inactive)	> 100 µM (inactive)	> 100 µM (inactive)	> 100 µM (inactive)	> 100 µM (inactive)	> 100 µM (inactive)	> 100 µM (inactive)	> 100 µM (inactive)	> 100 µM (inactive)	> 100 µM (inactive)	> 100 µM (inactive)		> 100 µM (inactive)	> 100 µM (inactive)	> 100 µM (inactive)	> 100	> 100 µM (inactive)	> 100 µM (inactive)	> 100 µM (inactive)
CN(C)CCCNc1ccnc2cccc([N+](=O)[O-])c12	12.8 µM (inactive)	26.7 µM (inactive)	> 100 µM (inactive)	7.05 µM (inactive)		14.3 µM (inactive)	12.1 µM (inactive)	14.1 µM (inactive)	10.6 µM (inactive)	6.5 µM (inactive)	21.8 µM (inactive)	> 100 µM (inactive)	12.1 µM (inactive)	15.7 µM (inactive)	13.7 µM (inactive)	16.4 µM (inactive)	8.41	5.22 µM (inactive)	13.3 µM (inactive)	10.4 µM (inactive)
O=C1c2cc([N+](=O)[O-])ccc2-c2cccc(F)c21	> 100 µM (inactive)	38.5 µM (inactive)	30.3 µM (inactive)	> 100 µM (inactive)	56.1 µM (inactive)	73.8 µM (inactive)	> 100 µM (inactive)	> 100 µM (inactive)	> 100 µM (inactive)	89.3 µM (inactive)	> 100 µM (inactive)	42.3 µM (inactive)	40.7 µM (inactive)	90.4 µM (inactive)	67.6 µM (inactive)	44.3 µM (inactive)	37.1	> 100 µM (inactive)	> 100 µM (inactive)	70.6 µM (inactive)
Nc1nc(Cl)cc(NCC2(CO)CC(Cc3ccccc3)C2)n1 (stereo not given)	19.1 µM (inactive)	4.71 µM (inactive)	9.27 µM (inactive)	16.2 µM (inactive)	27.5 µM (inactive)	30.6 µM (inactive)	29 µM (inactive)	> 60.8 µM (inactive)	36.6 µM (inactive)	22.5 µM (inactive)	20.4 µM (inactive)	16.5 µM (inactive)	48.4 µM (inactive)	27.9 µM (inactive)	5.81 µM (inactive)	21.6 µM (inactive)	9.55	51.9 µM (inactive)	> 73.5 µM (inactive)	0.417 µM (active)
COc1cc(C2S/C(=C/c3ccccc3)C(=O)N2Cc2ccccc2)cc(OC)c1OC (stereo not given)	27.3 µM (inactive)	21.2 µM (inactive)	20 µM (inactive)	33.1 µM (inactive)	23.5 µM (inactive)	28.2 µM (inactive)	53.5 µM (inactive)	41.1 µM (inactive)	28.8 µM (inactive)		54.5 µM (inactive)	18.4 µM (inactive)	42.2 µM (inactive)	32.7 µM (inactive)	17.5 µM (inactive)	33.1 µM (inactive)	40.1		36.8 µM (inactive)	28.2 µM (inactive)
COc1cc(CCNC2=CC(=O)c3cccnc3C2=O)ccc1O	1.56 µM (inactive)	2.5 µM (inactive)	1.87 µM (inactive)	1.49 µM (inactive)	0.957 µM (active)	2.76 µM (inactive)	1.97 µM (inactive)	1.37 µM (inactive)	5.48 µM (inactive)	1.09 µM (active)	1.37 µM (inactive)	4.09 µM (inactive)	1.44 µM (inactive)	0.766 µM (active)	1.84 µM (inactive)	2.07 µM (inactive)	1.18	2.04 µM (inactive)	1.39 µM (inactive)	0.385 µM (active)
CC(NC(=O)Cc1ccccc1)NC(=O)C(C)C(=O)Nc1ccccc1 (stereo not given)	> 100 µM (inactive)	> 10 µM (inactive)	> 100 µM (inactive)	> 100 µM (inactive)	> 100 µM (inactive)	> 100 µM (inactive)	> 100 µM (inactive)	52.2 µM (inactive)	44.2 µM (inactive)	> 100 µM (inactive)	43.5 µM (inactive)	> 100 µM (inactive)	61.5 µM (inactive)	43.3 µM (inactive)	> 100 µM (inactive)	36.6 µM (inactive)	> 100		66.5 µM (inactive)	> 100 µM (inactive)
COc1cc2c(cc1OC)C13CC[N+]4(C)CC5=CCOC6CC(=O)N2C1C6C5CC34[O-] (stereo not given)	> 100 µM (inactive)	> 100 µM (inactive)	> 100 µM (inactive)	> 100 µM (inactive)	> 100 µM (inactive)	> 100 µM (inactive)		> 100 µM (inactive)	> 100 µM (inactive)	> 100 µM (inactive)	> 100 µM (inactive)	> 100 µM (inactive)	> 100 µM (inactive)	> 100 µM (inactive)	> 100 µM (inactive)	> 100 µM (inactive)	> 100	> 100 µM (inactive)	> 100 µM (inactive)	> 100 µM (inactive)
CC(=O)OC[C@@]12C[C@H]3C(=O)C(C)(C)C[C@H]3[C@]1(C)[C@@H](OC(C)=O)[C@]1(O)[C@H]([C@@H](OC(=O)c3ccccc3)[C@@H](C)[C@H]1OC(C)=O)[C@H]2OC(C)=O		4.92 µM (inactive)	> 20 µM (inactive)	> 20 µM (inactive)	> 20 µM (inactive)	> 20 µM (inactive)		> 20 µM (inactive)	> 20 µM (inactive)	6.19 µM (inactive)	> 20 µM (inactive)	9.02 µM (inactive)	> 20 µM (inactive)	> 20 µM (inactive)	> 20 µM (inactive)	> 20 µM (inactive)	> 20	> 20 µM (inactive)	> 20 µM (inactive)	> 20 µM (inactive)
CC1(C)OC(=S)N(c2ccccc2)C12C=Cc1ccccc1O2 (stereo not given)	> 100 µM (inactive)	8.59 µM (inactive)	4.26 µM (inactive)	90.6 µM (inactive)	75.5 µM (inactive)	41.7 µM (inactive)	56.6 µM (inactive)	> 100 µM (inactive)	88.3 µM (inactive)	71.6 µM (inactive)	79.3 µM (inactive)	22.5 µM (inactive)	41.6 µM (inactive)	> 100 µM (inactive)	36.6 µM (inactive)	> 100 µM (inactive)	58.9	> 100 µM (inactive)	> 100 µM (inactive)	56.5 µM (inactive)
O=[N+]([O-])c1ccc(Sc2c3ccccc3nc3ccccc23)nc1	26.2 µM (inactive)	4.48 µM (inactive)	2.47 µM (inactive)	3.22 µM (inactive)	15.3 µM (inactive)	14.8 µM (inactive)	3.06 µM (inactive)	2.2 µM (inactive)	1.95 µM (inactive)	23.2 µM (inactive)	14.1 µM (inactive)	2.75 µM (inactive)	16.7 µM (inactive)	24.3 µM (inactive)	2.09 µM (inactive)	8.71 µM (inactive)	4	5.74 µM (inactive)	4.88 µM (inactive)	16.7 µM (inactive)
Cc1c2oc3c(C)ccc(C(=O)NC4C(=O)NC(C(C)C)C(=O)N5CCCC5C(=O)N(C)CC(=O)N(C)C(Cc5cnc[nH]5)C(=O)OC4C)c3nc-2c(C(=O)NC2C(=O)NC(C(C)C)C(=O)N3CCCC3C(=O)N(C)CC(=O)N(C)C(Cc3cnc[nH]3)C(=O)OC2C)c(N)c1=O (stereo not given) (I: TVP[Sar][NMeH] / II: TVP[Sar][NMeH]; ester I:1-I:C, II:1-II:C; linker I:N-II:N via Actinocin(9to1); configuration not given here)	61.9 µM (inactive)	63.7 µM (inactive)	65.3 µM (inactive)	68.5 µM (inactive)	30.3 µM (inactive)	55 µM (inactive)	31.8 µM (inactive)	45.6 µM (inactive)	40.6 µM (inactive)	37.7 µM (inactive)	> 100 µM (inactive)	37.3 µM (inactive)	47.3 µM (inactive)	57.1 µM (inactive)		67.6 µM (inactive)	> 100	> 100 µM (inactive)	38.1 µM (inactive)	16.9 µM (inactive)
